Assay [1] has as its target T1, Akt1 (Homo sapiens, UniProt P31749).
T1 construct: unspecified tag, removed (detagged) (cleaved yes); purchased SignalChem and Proteros (Akt1); Merck Millipore (PDK1) 14-452 (PDK1); none given for Akt1
The assay can be described thus: Akt activation assay (PDK1-mediated activation, LANCE Ultra crosstide TR-FRET), Akt1. The format is biochemical. The note with it: read-out: Biological Assay 1 IC50 (nM) Akt1. In short, it runs like this:
(§1)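 Compound + Akt preinc.; start w/ PDK1 5 nM, DOPS/DOPC 5.5 μM each, PIP3 0.55 μM, ATP 100 μM, Ulight-crosstide 100 nM; HEPES pH 7.5, 10 mM MgCl2, 2 mM DTT, 1% DMSO; 30 min; EDTA stop; Eu-Ab TR-FRET; 4-PL IC50.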
For orientation: TR-FRET usually uses a lanthanide donor and a delayed reading to cut background.

The target in assay [2] is T2, Akt2 (Homo sapiens, UniProt P31751).
T2 construct: unspecified tag, removed (detagged) (cleaved yes); purchased SignalChem and Proteros (Akt2); Merck Millipore (PDK1) 14-452 (PDK1); none given for Akt2
The assay can be described thus: Akt activation assay (PDK1-mediated activation, LANCE Ultra crosstide TR-FRET), Akt2. Format: biochemical. The note with it: read-out: Biological Assay 1 IC50 (nM) Akt2. In short, it runs like this:
as §1

Assay [3] deals with T3, Akt3 (Homo sapiens, UniProt Q9Y243).
T3 construct: unspecified tag, removed (detagged) (cleaved yes); purchased SignalChem and Proteros (Akt3); Merck Millipore (PDK1) 14-452 (PDK1); none given for Akt3
The assay can be described thus: Akt activation assay (PDK1-mediated activation, LANCE Ultra crosstide TR-FRET), Akt3. The format is biochemical. Particulars: read-out: Biological Assay 1 IC50 (nM) Akt3. In outline: as §1

Assay [4] has as its target T4, p-Akt1 in LNCaP cells (Homo sapiens, UniProt P31749).
T4 construct: SureFire assays to detect cellular p-Akt1, p-Akt2 and p-Akt3 levels in WM115 cells (Akt2/3) and LNCaP cells (Akt1); endogenous in cells; host or cells: LNCaP (ECACC 89110211)
The assay can be described thus: Phospho-Akt cellular SureFire assay, p-Akt1 in LNCaP cells. The format is cell-based. The note with it: read-out: Biological Assay 2 IC50 (nM) Akt1 LNCaP. In short, it runs like this: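 LNCaP cells, 5×10^4/well, seeded overnight, switched to 0.1% FBS medium without insulin stimulation, then compound for 15 min at 37 °C (0.3% DMSO). Lysate p-Akt1 (pThr308) by AlphaScreen SureFire, two 2 h incubations at room temperature; IC50 by 4-parameter fit.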

In assay [5] the target is T5, p-Akt2 in WM115 cells (Homo sapiens, UniProt P31751).
T5 construct: SureFire assays to detect cellular p-Akt1, p-Akt2 and p-Akt3 levels in WM115 cells (Akt2/3) and LNCaP cells (Akt1); endogenous in cells; host or cells: WM115 (ECACC 91061232), insulin-stimulated
Briefly: Phospho-Akt cellular SureFire assay, p-Akt2 in WM115 cells. The format is cell-based. Particulars: insulin stimulated, read-out: Biological Assay 2 IC50 (nM) Akt2 WM115. In outline: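 WM115 cells in 0.1% FBS medium stimulated 10 min with 100 nM insulin, then exposed to compound for 15 min at 37° C (0.3% DMSO final). Lysates assayed by AlphaScreen with anti-(pThr308)Akt and isoform-specific total Akt2 antibodies; IC50 from 4-parameter fit.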

Assay [6] has as its target T6, p-Akt3 in WM115 cells (Homo sapiens, UniProt Q9Y243).
T6 construct: SureFire assays to detect cellular p-Akt1, p-Akt2 and p-Akt3 levels in WM115 cells (Akt2/3) and LNCaP cells (Akt1); endogenous in cells; host or cells: WM115 (ECACC 91061232), insulin-stimulated
Briefly: Phospho-Akt cellular SureFire assay, p-Akt3 in WM115 cells. The format is cell-based. Particulars: insulin stimulated, read-out: Biological Assay 2 IC50 (nM) Akt3 WM115. In outline:
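WM115 cells were serum-reduced to 0.1% FBS, stimulated with 100 nM insulin for 10 min, then exposed to compound (0.3% DMSO) for 15 min at 37 °C. Lysates were assayed for Thr308-phosphorylated Akt3 by AlphaScreen SureFire using an isoform-specific total Akt3 capture antibody. IC50 was derived from a 4-parameter fit.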

T1 sequence (P31749 whole entry): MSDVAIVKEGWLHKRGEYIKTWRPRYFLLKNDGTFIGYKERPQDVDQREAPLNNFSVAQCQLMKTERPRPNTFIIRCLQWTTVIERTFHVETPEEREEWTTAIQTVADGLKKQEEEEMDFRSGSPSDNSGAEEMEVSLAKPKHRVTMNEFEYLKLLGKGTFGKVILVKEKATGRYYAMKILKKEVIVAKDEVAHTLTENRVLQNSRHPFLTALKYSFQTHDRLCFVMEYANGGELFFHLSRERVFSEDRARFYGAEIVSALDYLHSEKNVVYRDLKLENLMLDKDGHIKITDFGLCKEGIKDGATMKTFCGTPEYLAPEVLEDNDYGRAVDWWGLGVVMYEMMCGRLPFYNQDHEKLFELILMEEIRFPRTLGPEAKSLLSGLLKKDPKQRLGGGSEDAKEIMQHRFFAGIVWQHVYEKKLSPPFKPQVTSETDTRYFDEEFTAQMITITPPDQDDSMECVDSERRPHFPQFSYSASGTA
T4 sequence (P31749 whole entry): as above
T2 sequence (P31751 whole entry): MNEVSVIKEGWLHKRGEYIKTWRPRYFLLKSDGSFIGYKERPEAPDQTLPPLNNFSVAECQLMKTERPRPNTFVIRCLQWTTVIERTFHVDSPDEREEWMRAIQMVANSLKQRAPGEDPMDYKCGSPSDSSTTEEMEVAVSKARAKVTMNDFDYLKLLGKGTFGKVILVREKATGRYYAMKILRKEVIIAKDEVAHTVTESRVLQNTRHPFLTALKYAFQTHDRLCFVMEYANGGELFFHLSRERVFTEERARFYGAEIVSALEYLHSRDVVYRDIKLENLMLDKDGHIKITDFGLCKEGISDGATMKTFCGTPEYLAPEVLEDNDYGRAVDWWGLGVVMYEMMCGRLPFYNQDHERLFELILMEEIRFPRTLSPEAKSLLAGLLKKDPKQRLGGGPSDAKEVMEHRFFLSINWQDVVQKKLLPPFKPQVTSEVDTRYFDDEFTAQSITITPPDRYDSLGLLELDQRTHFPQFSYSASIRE
T5 sequence (P31751 whole entry): as above
T3 sequence (Q9Y243 whole entry): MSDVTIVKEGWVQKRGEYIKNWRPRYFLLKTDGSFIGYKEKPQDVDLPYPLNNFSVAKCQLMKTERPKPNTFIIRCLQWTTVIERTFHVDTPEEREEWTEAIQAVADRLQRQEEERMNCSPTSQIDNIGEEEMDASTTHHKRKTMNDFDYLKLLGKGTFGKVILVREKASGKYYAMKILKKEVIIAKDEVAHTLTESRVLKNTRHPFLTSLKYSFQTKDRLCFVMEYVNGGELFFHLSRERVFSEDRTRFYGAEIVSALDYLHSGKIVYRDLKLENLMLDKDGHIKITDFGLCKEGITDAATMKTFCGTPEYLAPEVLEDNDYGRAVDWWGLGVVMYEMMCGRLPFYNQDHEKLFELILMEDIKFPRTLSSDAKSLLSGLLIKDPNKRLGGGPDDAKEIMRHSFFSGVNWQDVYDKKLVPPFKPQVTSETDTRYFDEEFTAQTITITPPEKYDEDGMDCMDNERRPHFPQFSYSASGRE
T6 sequence (Q9Y243 whole entry): as above

For `CC(C)(N)c1ccc(-c2ncc(NC(=O)C[C@H]3CC[C@H](N4CCOCC4)CC3)cc2-c2ccccc2)cc1` [Example A18, N-(6-(4-(2-aminopropan-2-yl)phenyl)-5-phenylpyridin-3-yl)-2-(trans-4-morpholinocyclohexyl)acetamide], the IC50 (in general, the concentration that gives 50% inhibition) in assay [1] was greater than 30000 nM; in assay [2], 25000 nM; in assay [3], 6300 nM; in assay [4], greater than 27000 nM; in assay [5], 7900 nM; in assay [6] it was 270 nM.
Turning to `CC(=O)N(C)[C@H]1CC[C@H](CC(=O)Nc2cc(-c3ccccc3)c(-c3ccc(C(C)(C)N)cc3)cn2)CC1` [Example 63, N-(5-(4-(2-aminopropan-2-yl)phenyl)-4-phenylpyridin-2-yl)-2-(trans-4-(N-methylacetamido)cyclohexyl)acetamide], the IC50 in assay [1] is greater than 30000 nM; in assay [2] it was greater than 30000 nM; in assay [3], 300 nM; in assay [4], greater than 30000 nM; in assay [5], greater than 28000 nM; in assay [6], 360 nM.
With `CCN(C(=O)OC)[C@H]1CC[C@H](CC(=O)Nc2cc(-c3ccccc3)c(-c3ccc([C@]4(N)C[C@](C)(O)C4)cc3)nn2)CC1` [Example 129, Methyl (trans-4-(2-((6-(4-(trans-1-amino-3-hydroxy-3-methylcyclobutyl)phenyl)-5-phenylpyridazin-3-yl)amino)-2-oxoethyl)cyclohexyl) (ethyl)carbamate], the IC50 in assay [1] is 11000 nM; in assay [2], 190 nM; in assay [3], 7 nM; in assay [4] it was 2000 nM; in assay [5], 620 nM; in assay [6] it was 7 nM.
`CN(C(=O)C1CCC1)[C@H]1CC[C@H](CC(=O)Nc2cc(-c3ccccc3)c(-c3ccc(C(C)(C)N)cc3)nn2)CC1` [Example A87, N-(trans-4-(2-((6-(4-(2-aminopropan-2-yl)phenyl)-5-phenylpyridazin-3-yl)amino)-2-oxoethyl)cyclohexyl)-N-methylcyclobutanecarboxamide]: the IC50 in assay [1] is greater than 30000 nM; in assay [2], 5500 nM; in assay [3], 99 nM; in assay [4], greater than 23000 nM; in assay [5], 12000 nM; in assay [6], 400 nM.
With `CC(C)(N)c1ccc(-c2ncc(NC(=O)C[C@H]3CC[C@H](N4CCCC4=O)CC3)cc2-c2ccccc2)cc1` [Example 24, N-(6-(4-(2-aminopropan-2-yl)phenyl)-5-phenylpyridin-3-yl)-2-(trans-4-(2-oxopyrrolidin-1-yl)cyclohexyl)acetamide], the IC50 is greater than 30000 nM in assay [1]; 10000 nM in assay [2]; 300 nM in assay [3]; greater than 18000 nM in assay [4]; 6700 nM in assay [5]; 170 nM in assay [6].
In the case of `NC1(c2ccc(-c3ncc(NC(=O)C[C@H]4CC[C@H](N5CCOCC5)CC4)cc3-c3ccccc3)cc2)CC(F)(F)C1` [Example A2, N-(6-(4-(1-amino-3,3-difluorocyclobutyl)phenyl)-5-phenylpyridin-3-yl)-2-(trans-4-morpholinocyclohexyl)acetamide], the IC50 was determined as 5500 nM in assay [1]; 2600 nM in assay [2]; 1400 nM in assay [3]; 7700 nM in assay [4]; 6000 nM in assay [5]; 560 nM in assay [6].
In the case of `CC(=O)N[C@H]1CC[C@H](CC(=O)Nc2cnc(-c3ccc([C@]4(N)C[C@H](F)C4)cc3)c(-c3ccccc3)c2)CC1` [Example 15, 2-(trans-4-acetamidocyclohexyl)-N-(6-(4-(trans-1-amino-3-fluorocyclobutyl)phenyl)-5-phenylpyridin-3-yl)acetamide], the IC50 was 7700 nM in assay [1]; 580 nM in assay [2]; 180 nM in assay [3]; greater than 22000 nM in assay [4]; 1100 nM in assay [5]; 21 nM in assay [6].
With `CN(C(=O)C1CC1)[C@H]1CC[C@H](CC(=O)Nc2cc(-c3ccccc3)c(-c3ccc(C4(N)CC4)cc3)nn2)CC1` [Example 87, N-(trans-4-(2-((6-(4-(1-aminocyclopropyl)phenyl)-5-phenylpyridazin-3-yl)amino)-2-oxoethyl)cyclohexyl)-N-methylcyclopropanecarboxamide], the 50% inhibitory concentration (IC50) was greater than 30000 nM in assay [1]; 510 nM in assay [2]; 29 nM in assay [3]; greater than 30000 nM in assay [4]; 3300 nM in assay [5]; 130 nM in assay [6].
Take `N[C@]1(c2ccc(-c3nnc(NC(=O)C[C@H]4CC[C@H](N5CCOC5=O)CC4)cc3-c3ccccc3)cc2)C[C@@H](F)C1` [Example 45, N-(6-(4-(trans-1-amino-3-fluorocyclobutyl)phenyl)-5-phenylpyridazin-3-yl)-2-(trans-4-(2-oxooxazolidin-3-yl)cyclohexyl)acetamide]: the half-maximal inhibitory concentration (IC50) in assay [1] is greater than 17000 nM; in assay [2] it was 380 nM; in assay [3] it was 67 nM; in assay [4], greater than 30000 nM; in assay [5], greater than 3600 nM; in assay [6], 38 nM.
As for `CC(C)(N)c1ccc(-c2ncc(NC(=O)C[C@H]3CC[C@H](NC(=O)C4CC4)CC3)cc2-c2ccccc2)cc1` [Example A20, N-(trans-4-(2-((6-(4-(2-aminopropan-2-yl)phenyl)-5-phenylpyridin-3-yl)amino)-2-oxoethyl)cyclohexyl)cyclopropane-carboxamide], the IC50 was greater than 36000 nM in assay [1]; 2300 nM in assay [2]; 55 nM in assay [3]; greater than 30000 nM in assay [4]; 5400 nM in assay [5]; 200 nM in assay [6].
Regarding `COC(=O)N(C)[C@H]1CC[C@H](CC(=O)Nc2cnc(-c3ccc([C@]4(N)C[C@](C)(O)C4)cc3)c(-c3ccccc3)c2)CC1` [Example 44, Methyl (trans-4-(2-((6-(4-(trans-1-amino-3-hydroxy-3-methylcyclobutyl)phenyl)-5-phenylpyridin-3-yl)amino)-2-oxoethyl)cyclohexyl)(methyl)carbamate], the half-inhibitory concentration (IC50) in assay [1] was 1200 nM; in assay [2], 110 nM; in assay [3], 22 nM; in assay [4], 1100 nM; in assay [5], 350 nM; in assay [6], 6 nM.
Regarding `CCOC(=O)N(C)[C@H]1CC[C@H](CC(=O)Nc2cc(-c3ccccc3)c(-c3ccc([C@]4(N)C[C@](C)(O)C4)cc3)nn2)CC1` [Example A80, Ethyl (trans-4-(2-((6-(4-(trans-1-amino-3-hydroxy-3-methylcyclobutyl)phenyl)-5-phenylpyridazin-3-yl)amino)-2-oxoethyl)cyclohexyl)(methyl)carbamate], the IC50 in assay [1] was 2400 nM; in assay [2], 74 nM; in assay [3] it was 4 nM; in assay [4], 2400 nM; in assay [5], 710 nM; in assay [6], 10 nM.
Take `CC(C)(N)c1ccc(-c2cnc(NC(=O)C[C@H]3CC[C@H](N4CCOC4=O)CC3)cc2-c2ccsc2)cc1` [Example A52, N-(5-(4-(2-aminopropan-2-yl)phenyl)-4-(thiophen-3-yl)pyridin-2-yl)-2-(trans-4-(2-oxooxazolidin-3-yl)cyclohexyl)acetamide]: the IC50 in assay [1] was greater than 30000 nM; in assay [2] it was 11000 nM; in assay [3] it was 640 nM; in assay [4] it was greater than 30000 nM; in assay [5], 2600 nM; in assay [6], 240 nM.
`CC(C)(N)c1ccc(-c2nnc(NC(=O)C[C@H]3CC[C@H](N4CCOC4=O)CC3)cc2-c2ccccc2)cc1` [Example 65, N-(6-(4-(2-aminopropan-2-yl)phenyl)-5-phenylpyridazin-3-yl)-2-(trans-4-(2-oxooxazolidin-3-yl)cyclohexyl)acetamide]: the IC50 in assay [1] is greater than 30000 nM; in assay [2], 4100 nM; in assay [3], 61 nM; in assay [4], greater than 30000 nM; in assay [5], 6500 nM; in assay [6] it was 190 nM.
